Entries after “also recorded” stand apart in the source; their conditions may differ.
Key:
Assay type in all cases: cell-based
[1] = tested on: goldfish retinal ganglion cells; experiment: Cell survival in goldfish retinal ganglion cell cultures (viable RGCs per field)
Description: Goldfish (Comet Variety, Mt. Parnell Fisheries, Mt. Parnell Pa.), 6-10 cm in length, were dark-adapted and their retinas dissected. Retinas were incubated with papain (20 μg/ml), activated with cysteine (2.8 mM) for 30 minutes at room temperature, then dissociated by gentle trituration. […] Low density cultures were achieved by plating c. 5×10^3 cells/well into poly L-lysine coated, 24-well culture dishes (Costar, Cambridge, Mass.). […] In brief, retinas from postnatal day 8 Sparague-Dawley rats were dissociated using papain activated with cysteine. Macrophages were removed by incubation with an anti-rat macrophage antibody (Accurate) followed by immunopanning with an anti-rabbit 1gG antibody. Ganglion cells were isolated by immunopanning with an anti-Thy-1 antibody, then dislodged with trypsin for use in low-density cultures. Rat retinal ganglion cells were maintained at 37° C. in a CO2 incubator using the same medium described above except for the presence of 30 mM bicarbonate.
In a typical experiment, samples were plated in quadruplicate in randomized positions of a 24-well plate and the code was concealed to ensure that growth was evaluated in a blinded fashion. Each experiment contained 4 wells of a negative control (media plus supplements only) and 4 wells of a positive control (a standardized AF-1 sample of known activity). Growth and survival were assessed after 6 days for all ganglion cells in 25 consecutive fields of each well using phase contrast microscopy at 400× magnification (c. 150 ganglion cells counted per well). […] After the completion of counting, the code was broken, the data tabulated, and means and standard errors were calculated for the 4 replicate wells of each sample using Cricket Graph (CA Associates, Islandia, N.Y.). Data were normalized by subtracting the growth in the negative controls (usually 4-5%) and dividing by the net growth in the positive controls. […] Group comparisons were based upon pairwise, 2-tailed Student's t-tests. Several independent experiments were performed for most samples, as noted in the figure legends. In some cases, cell viability was assessed with the dye 5,6-carboxyfluorescein diacetate. Cell survival is reported as the number of viable RGCs per high-powered field.

[2] = tested on: goldfish retinal ganglion cells; experiment: Axonal outgrowth from dissociated goldfish retinal ganglion cell cultures; settings: for EC50: goldfish RGCs, 6 days, estimated from dose-response curves; for Emax: read-out: maximal response relative to the level induced by AF-1; for outgrowth at higher concentrations: concentrations above those giving the maximal response; for axonal outgrowth activity: tested at concentrations between 1-100 μM; for dependence of outgrowth on cell density: fixed concentration (100 μM), 3-4-fold range of cell densities; for restoration of AF-1-induced growth in the presence of 10 μM 6-TG: inosine 100 μM
Description: Axogenesis factor-1 was obtained essentially as described in Schwalb et al., 1995, and Schwalb et al., Neuroscience, 72: 901-910, 1996, the contents of which are incorporated herein by reference). Optic nerves were dissected, cut into fragments 1 mm in length, and incubated in a ratio of 6 nerves in 3 ml of either L-15 media (Gibco BRL) or phosphate-buffered saline (Gibco BRL). After 3-4 hours, nerve fragments were removed by filtering through a 0.22 μm pore low protein-binding filter (Gelman). A low molecular weight fraction of the conditioned media was prepared by ultrafiltration, first with a molecular weight cut-off of 3 kDa (Amicon Centriprep-3), then with a cut-off of 1 kDa (Filtron). The filtrate was used as a positive control at 20-30% final concentration. […] Goldfish (Comet Variety, Mt. Parnell Fisheries, Mt. Parnell Pa.), 6-10 cm in length, were dark-adapted and their retinas dissected. Retinas were incubated with papain (20 μg/ml), activated with cysteine (2.8 mM) for 30 minutes at room temperature, then dissociated by gentle trituration. […] Neuroscience 15: 5514-5625, 1995, the contents of which are incorporated herein by reference). […] Cells were maintained at 21° C. in serum free, defined media containing insulin, selenium, transferrin, bovine serum albumin, catalase, superoxide dismutase, hormones, and vitamins in Eagle's L-15 media as described in Schwalb et al., 1995, the contents of which are incorporated herein by reference). Dissociated cultures of purified rat retinal ganglion cells were prepared by immunopanning as described in Barres et al., Neuron, 1: 791-803, 1988, the contents of which are incorporated herein by reference). In brief, retinas from postnatal day 8 Sparague-Dawley rats were dissociated using papain activated with cysteine. Macrophages were removed by incubation with an anti-rat macrophage antibody (Accurate) followed by immunopanning with an anti-rabbit 1gG antibody. Ganglion cells were isolated by immunopanning with an anti-Thy-1 antibody, then dislodged with trypsin for use in low-density cultures. Rat retinal ganglion cells were maintained at 37° C. in a CO2 incubator using the same medium described above except for the presence of 30 mM bicarbonate. In a typical experiment, samples were plated in quadruplicate in randomized positions of a 24-well plate and the code was concealed to ensure that growth was evaluated in a blinded fashion. Each experiment contained 4 wells of a negative control (media plus supplements only) and 4 wells of a positive control (a standardized AF-1 sample of known activity). […] After the completion of counting, the code was broken, the data tabulated, and means and standard errors were calculated for the 4 replicate wells of each sample using Cricket Graph (CA Associates, […].). […] Group comparisons were based upon pairwise, 2-tailed Student's t-tests. Several independent experiments were performed for most samples, as noted in the figure legends. […] Cell survival is reported as the number of viable RGCs per high-powered field.

GAP-43 = GAP-43 immunohistochemistry in goldfish retinal ganglion cells; settings: for GAP-43 levels relative to L-15 treated controls: immunostaining
Description: One hallmark of optic nerve regeneration in vivo is the enhanced expression of the membrane phosphoprotein GAP-43. To investigate whether this upregulation is induced by purines, immunohistochemistry was carried out using a polyclonal rabbit antiserum against recombinant […] GAP-43. Recombinant zebrafish GAP-43 was made by transforming E. coli with a cDNA isolated by Dr. Eva Reinhard, University of Basel, Switzerland (see Reinhard et al., Development, 120: 1757-1775, 1994, the contents of which are incorporated herein by reference) subcloned into the prokaryotic expression vector pTrcHisB (Invitrogen). The protein produced was purified by Ni^2+-NTA-affinity chromatography and used to immunize rabbits. […] Inosine produced a 5.5-fold increase in the number of intensely stained cells over L-15, whereas AF-1 produced a 8-fold increase. In all 3 cases, the intensity of GAP-43 immunostaining correlated strongly with axonal length.

[3] = tested on: rat retinal ganglion cells; experiment: Axonal outgrowth from purified rat retinal ganglion cells; settings: rat RGCs
Description: Goldfish (Comet Variety, Mt. Parnell Fisheries, Mt. Parnell Pa.), 6-10 cm in length, were dark-adapted and their retinas dissected. Retinas were incubated with papain (20 μg/ml), activated with cysteine (2.8 mM) for 30 minutes at room temperature, then dissociated by gentle trituration. Repeated cycles of trituration and sedimentation yielded cultures nearly homogeneous in ganglion cells, which are readily identified by their oval shape, phase-bright appearance, size (diameter 15 μm), and extension of only 1 or 2 neurites of uniform caliber; these criteria have been verified by retrograde labeling (see Schwartz & Agranoff, Brain Res. 206: 331-343, 1981 and Schwalb et al., J. Neuroscience 15: 5514-5625, 1995, the contents of which are incorporated herein by reference). Low density cultures were achieved by plating c. 5×10^3 cells/well into poly L-lysine coated, 24-well culture dishes (Costar, Cambridge, Mass.). Cells were maintained at 21° C. in serum free, defined media containing insulin, selenium, transferrin, bovine serum albumin, catalase, superoxide dismutase, hormones, and vitamins in Eagle's L-15 media as described in Schwalb et al., 1995, the contents of which are incorporated herein by reference). Dissociated cultures of purified rat retinal ganglion cells were prepared by immunopanning as described in Barres et al., Neuron, 1: 791-803, 1988, the contents of which are incorporated herein by reference). In brief, retinas from postnatal day 8 Sparague-Dawley rats were dissociated using papain activated with cysteine. Macrophages were removed by incubation with an anti-rat macrophage antibody (Accurate) followed by immunopanning with an anti-rabbit 1gG antibody. Ganglion cells were isolated by immunopanning with an anti-Thy-1 antibody, then dislodged with trypsin for use in low-density cultures. Rat retinal ganglion cells were maintained at 37° C. in a CO2 incubator using the same medium described above except for the presence of 30 mM bicarbonate.
In a typical experiment, samples were plated in quadruplicate in randomized positions of a 24-well plate and the code was concealed to ensure that growth was evaluated in a blinded fashion. Each experiment contained 4 wells of a negative control (media plus supplements only) and 4 wells of a positive control (a standardized AF-1 sample of known activity). Growth and survival were assessed after 6 days for all ganglion cells in 25 consecutive fields of each well using phase contrast microscopy at 400× magnification (c. 150 ganglion cells counted per well). Extension of a process 5 cell diameters in length was the criterion for growth, since it clearly distinguishes stimulated cells from negative controls (see Schwalb et al., 1995). After the completion of counting, the code was broken, the data tabulated, and means and standard errors were calculated for the 4 replicate wells of each sample using Cricket Graph (CA Associates, Islandia, N.Y.). Data were normalized by subtracting the growth in the negative controls (usually 4-5%) and dividing by the net growth in the positive controls. In the most favorable experiments, more than 50% of retinal ganglion cells (RGCs) exposed to AF-1 extended axons 5 cell diameters in length after 6 days. Group comparisons were based upon pairwise, 2-tailed Student's t-tests. Several independent experiments were performed for most samples, as noted in the figure legends. In some cases, cell viability was assessed with the dye 5,6-carboxyfluorescein diacetate. […]

[4] = Carassius auratus, normalized to AF-1 positive control, adenosine 50-100 μM, guanosine 100 μM, inosine above 25 or 50 μM

In the case of `Nc1ncnc2c1ncn2[C@@H]1O[C@H](CO)[C@@H](O)[C@H]1O` [adenosine], the “cell survival when ADA is blocked with DCF” value [1] is reported as “causes adenosine to suppress growth (e, top) and survival”, the “outgrowth when adenosine hydrolysis is blocked” value ([2]; 100 μM adenosine in the presence of 10 μM DCF) is reported as “suppress growth; also recorded: failed to stimulate growth, but caused it to decline below baseline levels” and the EC50 ([2]; Carassius auratus, 144 h) is reported as 10 to 15 µM. For the same molecule, the Emax [2, 4] was 60%, the “outgrowth at higher concentrations” value [2] was “outgrowth decreased” and the axonal outgrowth activity [2] was “stimulated almost as much outgrowth from goldfish retinal ganglion cells as AF-1”.

In the case of `Nc1nc2c(ncn2[C@@H]2O[C@H](CO)[C@@H](O)[C@H]2O)c(=O)[nH]1` [guanosine], the “GAP-43 levels relative to L-15 treated controls” value (GAP-43) is reported as “large increase in GAP-43 levels”, the EC50 ([2]; Carassius auratus, 144 h) is reported as 20 to 30 µM and the “outgrowth at higher concentrations” value [2] is reported as “no obvious decrease in activity”. For the same molecule, the “dependence of outgrowth on cell density” value [2] was “growth is not a function of cell density; also recorded: independent of cell density”, the EC50 [2] was 25 µM and the “maximal response relative to the level induced by AF-1” value ([2]; normalized to AF-1 positive control, adenosine 50-100 μM, guanosine 100 μM, inosine above 25 or 50 μM) was “same maximal level of activity as adenosine”. For the same molecule, the axonal outgrowth activity [2] was “stimulated almost as much outgrowth from goldfish retinal ganglion cells as AF-1”.

For `OC[C@H]1O[C@@H](n2cnc3c(O)ncnc32)[C@H](O)[C@@H]1O` [inosine], the “increase in the number of intensely stained cells over L-15” value (GAP-43; GAP-43 immunoreactivity score 2 (intense), 150-200 cells) was 5.5 fold, the “GAP-43 levels relative to L-15 treated controls” value (GAP-43) was “large increase in GAP-43 levels” and the “restoration of CNTF stimulated growth in the presence of 10 μM 6-TG” value ([3]; inosine 25 μM) was “fully restored”. For the same molecule, the “restoration of CNTF-induced outgrowth in the presence of 10 μM 6-TG” value ([3]; inosine 50 μM) was “restored CNTF-induced outgrowth nearly to its original level”, the “increase in the number of cells extending axons 5 cell diameters in length” value ([3]; inosine at 25 or 50 μM) was 50% and the EC50 ([2]; Carassius auratus, 144 h) was 10 to 15 µM. For the same molecule, the Emax [2, 4] was ~60%, the “outgrowth at higher concentrations” value [2] was “did not cause growth to decline” and the “dependence of outgrowth on cell density” value [2] was “growth is not a function of cell density; also recorded: independent of cell density”. The “restoration of AF-1-induced growth in the presence of 10 μM 6-TG” value [2] was “fully restored the growth induced by AF-1”, the “restoration of AF-1-induced growth in the presence of 10 μM 6-TG” value ([2]; listed as Inosine) was “restored all of the growth induced by AF-1” and the “combined effect with AF-1” value ([2]; inosine and AF-1 at saturating / higher concentrations) was “growth saturates at the level stimulated by high AF-1 levels alone; also recorded: growth reached a plateau level”. The “combined effect with AF-1” value ([2]; inosine and AF-1 each at EC50 (half-maximal) levels) was “additive effects”.

B1: ADA: exogenous adenosine deaminase enzyme (protein, UniProt P00813 2-363, looked up)
Adenosine deaminase: AQTPAFDKPKVELHVHLDGSIKPETILYYGRRRGIALPANTAEGLLNVIGMDKPLTLPDFLAKFDYYMPAIAGCREAIKRIAYEFVEMKAKEGVVYVEVRYSPHLLANSKVEPIPWNQAEGDLTPDEVVALVGQGLQEGERDFGVKARSILCCMRHQPNWSPKVVELCKKYQQQTVVAIDLAGDETIPGSSLLPGHVQAYQEAVKSGIHRTVHAGEVGSAEVVKEAVDILKTERLGHGYHTLEDQALYNRLRQENMHFEICPWSSYLTGAWKPDTEHAVIRLKNDQANYSLNTDDPLIFKSTLDTDYQMTKRDMGFTEEEFKRLNINAAKSSFLPEDEKRELLDLLYKAYGMPPSASAGQNL
In the case of B1, the “effect on cell survival” value ([1]; exogenous ADA 0.4 U/ml with 100 μM adenosine) is reported as “did not diminish axon outgrowth stimulated by 100 μM adenosine or affect cell survival” and the “effect on outgrowth stimulated by 100 μM adenosine” value ([2]; exogenous ADA 0.4 U/ml) is reported as “unaltered; also recorded: did not diminish axon outgrowth”.

Source: US7935680B2, “Methods for modulating the axonal growth of central nervous system neurons” (Children's Medical Center Corporation, priority 1997, dated 2011)
